Source: US10294202B2, “Pyrrolidinones as herbicides” (FMC Corporation, priority 2013, dated 2019)

Key:
giant foxtail = test: Test A pre-/postemergence herbicide test; type: in vivo, Setaria faberii
Procedure, shortened: (§1)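 Formulated compound (non-phytotoxic solvent, surfactant) sprayed pre- onto soil of seeded loam/sand pots or post- onto seedlings at 1–2 leaves; ~10 d greenhouse; 0–100 visual control rating versus untreated.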

pigweed = test: Test A pre-/postemergence herbicide test; type: in vivo, Amaranthus retroflexus
Procedure, shortened: as §1

wheat = test: Test A pre-/postemergence herbicide test; type: in vivo, Triticum aestivum; details: Postemergence
Procedure, shortened: as §1

sedge, umbrella = test: Test B flooded paddy test; type: in vivo, Cyperus difformis; details: 500 g ai/ha, Flood; scale of 0 to 100 where 0 is no effect and 100 is complete control
Procedure, shortened: (§2)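 Plants grown to 2-leaf stage; pots flooded 3 cm above soil and compound applied directly into paddy water, depth held throughout. Visual rating against untreated controls after 13 to 15 days in greenhouse, 0 (no effect) to 100 (complete control).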

ducksalad = test: Test B flooded paddy test; type: in vivo, Heteranthera limosa; details: 500 g ai/ha, Flood; scale of 0 to 100 where 0 is no effect and 100 is complete control
Procedure, shortened: as §2

wheat (winter wheat) = test: Test C pre-/postemergence herbicide test; type: in vivo, Triticum aestivum; details: Preemergence; for Plant response rating, Wheat: 125 g ai/ha
Procedure, shortened: (§3)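 Compound solutions contained surfactant in a non-phytotoxic solvent. These were sprayed onto pots of loam/sand sown with seeds, and onto young plants (2 to 18 cm, 1- to 4-leaf) in sphagnum peat–vermiculite mix. Visual injury scores (0 none, 100 complete control) were recorded after 13 to 15 days.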

nutsedge, yellow = test: Test C pre-/postemergence herbicide test; type: in vivo, Cyperus esculentus; details: Preemergence; for Plant response rating, Nutsedge, Yellow: 125 g ai/ha; for Plant response rating (scale of 0 to 100), Nutsedge, Yellow: 250 g ai/ha
Procedure, shortened: as §3

ragweed = test: Test C pre-/postemergence herbicide test; type: in vivo, Ambrosia elatior; details: Preemergence; for Plant response rating, Ragweed: 125 g ai/ha
Source text: (§4) Seeds of plant species selected from blackgrass (Alopecurus myosuroides), ryegrass, Italian (Italian ryegrass, Lolium multiflorum), wheat (winter wheat, Triticum aestivum), galium (catchweed bedstraw, Galium aparine), corn (Zea mays), crabgrass, large (large crabgrass, Digitaria sanguinalis), foxtail, giant (giant foxtail, Setaria faberii), johnsongrass (Sorghum halepense), lambsquarters (Chenopodium album), morningglory (Ipomoea coccinea), nutsedge, yellow (yellow nutsedge, Cyperus esculentus), pigweed (Amaranthus retroflexus), ragweed (common ragweed, Ambrosia elatior), soybean (Glycine max), barnyardgrass (Echinochloa crus-galli), oilseed rape (Brassica napus), waterhemp (common waterhemp, Amaranthus rudis), kochia (Kochia scoparia), oat, wild (wild oat, Avena fatua), surinam grass (Brachiaria decumbens), foxtail, green (green foxtail, Setaria viridis), goosegrass (Eleusine indica), bromegrass, downy (downy bromegrass, Bromus tectorum), nightshade (eastern black nightshade, Solanum ptycanthum), cocklebur (common cocklebur, Xanthium strumarium), cupgrass, woolly (woolly cupgrass, Eriochloa villosa), bermudagrass (Cynodon dactylon), sunflower, (common oilseed sunflower, Helianthus annuus), Russian thistle (Salsola kali) and velvetleaf (Abutilon theophrasti) were planted into a blend of loam soil and sand and treated preemergence with test chemicals formulated in a non-phytotoxic solvent mixture which included a surfactant. At the same time, plants selected from these crop and weed species and also barley (winter barley, Hordeum vulgare), […]), chickweed (common chickweed, Stellaria media), deadnettle (henbit deadnettle, Lamium amplexicaule), and canarygrass (littleseed canarygrass, Phalaris minor) were planted in pots containing Redi-Earth® planting medium (Scotts Company, 14111 Scottslawn Road, Marysville, Ohio 43041) comprising spaghnum peat moss, vermiculite, wetting agent and starter nutrients and treated with postemergence applications of test chemicals formulated in the same manner. Plants ranged in height from 2 to 18 cm (1- to 4-leaf stage) for postemergence treatments. Treated plants and controls were maintained in a greenhouse for 13 to 15 days, after which time all species were compared to controls and visually evaluated. Plant response ratings, summarized in Table C, are based on a scale of 0 to 100 where 0 is no effect and 100 is complete control. A dash (-) response means no test result.

soybean = test: Test C pre-/postemergence herbicide test; type: in vivo, Glycine max; details: Preemergence; for Plant response rating, Soybean: 125 g ai/ha
Procedure, shortened: as §3

oilseed rape = test: Test C pre-/postemergence herbicide test; type: in vivo, Brassica napus; details: Preemergence; for Plant response rating, Oilseed Rape: 125 g ai/ha; for Plant response rating (scale of 0 to 100), Oilseed Rape: 250 g ai/ha
Source text: as §4

waterhemp = test: Test C pre-/postemergence herbicide test; type: in vivo, Amaranthus rudis; details: Preemergence; for Plant response rating, Waterhemp: 125 g ai/ha
Procedure, shortened: as §3

[1] = Postemergence, 125 g ai/ha, visual rating on 0 to 100 scale (0 no effect, 100 complete control), approx. 10 days
[2] = Postemergence, 500 g ai/ha, 0 to 100 scale (0 no effect, 100 complete control)
[3] = Preemergence, 125 g ai/ha, 0 to 100 scale where 0 is no effect and 100 is complete control
[4] = Preemergence, 500 g ai/ha, visual rating on 0 to 100 scale (0 no effect, 100 complete control)
[5] = 62 g ai/ha, scale 0 to 100 (0 no effect, 100 complete control)
[6] = 31 g ai/ha, scale 0 to 100, 0 is no effect and 100 is complete control
[7] = 125 g ai/ha, visual rating, 0 to 100 scale, 0 no effect, 100 complete control, approximately 10 days, preemergence
[8] = Postemergence, 125 g ai/ha, 0 to 100 scale, 0 is no effect, 100 is complete control
[9] = preemergence, 500 g ai/ha, 0 to 100 scale, 0 is no effect and 100 is complete control
[10] = scale 0 to 100 (0 no effect, 100 complete control)

CC(C)c1cccc(C2CNC(=O)C2C(=O)Nc2ccccc2F)c1 (stereo not shown) [Compound 318]
Plant response rating, Foxtail, Giant (giant foxtail; [1]): 40 | Plant response rating, Foxtail, Giant (giant foxtail; [2]): 70 | Plant response rating, Foxtail, Giant (giant foxtail; [3]): 90 | Foxtail, Giant plant response rating (giant foxtail; [4]): 90 | Plant response rating, Pigweed (pigweed; [1]): 20 | Plant response rating, Pigweed (pigweed; [2]): 20 | Plant response rating, Pigweed (pigweed; [3]): 0 | Pigweed plant response rating (pigweed; [4]): 20 | Plant response rating, Wheat (wheat; 125 g ai/ha, visual rating on 0 to 100 scale (0 no effect, 100 complete control), approx. 10 days): 20 | Plant response rating, Wheat (wheat; 500 g ai/ha, 0 to 100 scale (0 no effect, 100 complete control)): 30 | Plant response rating, Sedge, Umbrella (sedge, umbrella): 0 | Plant response rating, Ducksalad (ducksalad): 100 | Wheat plant response rating (wheat (winter wheat); [5]): 0 | Plant response rating, Wheat (wheat (winter wheat); scale 0 to 100): 5 | Nutsedge, Yellow plant response rating (nutsedge, yellow; [6]): 0 | Nutsedge, Yellow plant response rating (nutsedge, yellow; [5]): 0 | Plant response rating, Nutsedge, Yellow (nutsedge, yellow; scale 0 to 100): 0 | Plant response rating (scale of 0 to 100), Nutsedge, Yellow (nutsedge, yellow): 0 | Ragweed plant response rating (ragweed; [5]): 0 | Plant response rating, Ragweed (ragweed; scale 0 to 100): 0 | Soybean plant response rating (soybean; [5]): 0 | Plant response rating, Soybean (soybean; scale 0 to 100): 0 | Oilseed Rape plant response rating (oilseed rape; [6]): 0 | Oilseed Rape plant response rating (oilseed rape; [5]): 0 | Plant response rating, Oilseed Rape (oilseed rape; scale 0 to 100): 5 | Plant response rating (scale of 0 to 100), Oilseed Rape (oilseed rape): 5 | Waterhemp plant response rating (waterhemp; [5]): 30 | Plant response rating, Waterhemp (waterhemp; scale 0 to 100): 10

O=C1NCC(c2ccc(C(F)(F)F)cc2)C1C(=O)Nc1ccccc1F (stereo not shown) [Compound 231]
Plant response rating, Foxtail, Giant (giant foxtail; [7]): 90 | Plant response rating, Foxtail, Giant (giant foxtail; [8]): 70 | Foxtail, Giant plant response rating (0 to 100 scale, 0 is no effect, 100 is complete control) (giant foxtail; Postemergence, 500 g ai/ha): 90 | Plant response rating, Foxtail, Giant (giant foxtail; [9]): 90 | Plant response rating, Pigweed (pigweed; [7]): 70 | Plant response rating, Pigweed (pigweed; [8]): 0 | Pigweed plant response rating (0 to 100 scale, 0 is no effect, 100 is complete control) (pigweed; Postemergence, 500 g ai/ha): 40 | Plant response rating, Pigweed (pigweed; [9]): 70 | Plant response rating, Wheat (wheat; 125 g ai/ha, 0 to 100 scale, 0 is no effect, 100 is complete control): 20 | Wheat plant response rating (0 to 100 scale, 0 is no effect, 100 is complete control) (wheat; 500 g ai/ha): 30 | Plant response rating, Sedge, Umbrella (sedge, umbrella): 0 | Plant response rating, Ducksalad (ducksalad): 0 | Wheat plant response rating (wheat (winter wheat); [6]): 0 | Wheat plant response rating (wheat (winter wheat); [5]): 15 | Plant response rating, Wheat (wheat (winter wheat); [10]): 20 | Plant response rating (scale of 0 to 100), Wheat (wheat (winter wheat); 250 g ai/ha): 80 | Nutsedge, Yellow plant response rating (nutsedge, yellow; [6]): 0 | Nutsedge, Yellow plant response rating (nutsedge, yellow; [5]): 0 | Plant response rating, Nutsedge, Yellow (nutsedge, yellow; [10]): 0 | Plant response rating (scale of 0 to 100), Nutsedge, Yellow (nutsedge, yellow): 0 | Ragweed plant response rating (ragweed; [6]): 80 | Ragweed plant response rating (ragweed; [5]): 100 | Plant response rating, Ragweed (ragweed; [10]): 80 | Plant response rating (scale of 0 to 100), Ragweed (ragweed; 250 g ai/ha): 85 | Soybean plant response rating (soybean; [6]): 0 | Soybean plant response rating (soybean; [5]): 0 | Plant response rating, Soybean (soybean; [10]): 0 | Plant response rating (scale of 0 to 100), Soybean (soybean; 250 g ai/ha): 5 | Oilseed Rape plant response rating (oilseed rape; [6]): 0 | Oilseed Rape plant response rating (oilseed rape; [5]): 55 | Plant response rating, Oilseed Rape (oilseed rape; [10]): 85 | Plant response rating (scale of 0 to 100), Oilseed Rape (oilseed rape): 90 | Waterhemp plant response rating (waterhemp; [6]): 75 | Waterhemp plant response rating (waterhemp; [5]): 85 | Plant response rating, Waterhemp (waterhemp; [10]): 100 | Plant response rating (scale of 0 to 100), Waterhemp (waterhemp; 250 g ai/ha): 95
